Experimental data taken from US7138242B2, “Olfactory receptor expression libraries and methods of making and using them” (Johns Hopkins University, priority 1998, dated 2006).
Entries after “also recorded” stand apart in the source; their conditions may differ.

Tests used:
[1] = tested on: full-length I-C6 receptor fused to translocation domain (rhodopsin tag); experiment: Ca2+ imaging, full-length I-C6 receptor with rhodopsin tag in HEK-293 cells; type: cell-based, mouse
Experimental: PCR products were digested with PstI and BspEI restriction enzymes before size fractionation, purification and ligation into the pCMV-Rho/M4NC vector (see FIG. 1A). The vector ligation products were transformed into E. coli and 480 clones were placed in 96-well plates. […] Pools of cells from a single column of the plates (8 wells) were grown in a 50 ml culture and plasmid DNA prepared. Insert-containing vectors containing: the 5′-untranslated region of the rhodopsin gene, which included its coding region for the initiation methionine and the next 19 residues; joined to a full-length cDNA for a mouse olfactory receptor (M4 or I-C6), under the control of the CMV promoter, were also prepared. The full-length coding region of olfactory receptors mI7 and I-C6 were obtained by screening a mouse (129 SV/J) genomic phage (λFIX-II) library (2×10^6 independent clones) using ^32P-labeled DNA fragments (of TMII through VII sequence) of the respective receptors under stringent conditions (hybridized at 0.2×SSC at 65° C.). DNA fragments encoding the full-length receptors were cloned into pBluescript (Stratagene) and sequenced.
(§1) These transfected cells were then tested for their ability to functionally respond to ligand-receptor binding. The ligand, the adrenergic agonist isoproterenol, was “bath” applied to the transfected cells and single cell Ca^2+-imaging was performed. Cells were pre-loaded with the Ca^2+-sensitive fluorescent dye FURA-2 AM (Molecular Probes) by bathing in serum-free DMEM containing 4 μM of the membrane permeant chemical for 1 hr at 37° C., then washed with a standard bath solution (130 mM NaCl, 2 mM CaCl2, 5 mM KCl, 10 mM glucose, 10 mM Na.HEPES/pH 7.4 at room temperature). For each experiment, a glass coverslip with FURA-2 loaded HEK 293 cells was introduced into an open-topped, longitudinal microperfusion chamber (300 μl bath volume mounted on a Zeiss Axiovert 135 microscope equipped with an F Fluar 40×/1.30 oil-immersion lens. The cells were superfused with test solutions typically for 30 to 40 seconds (5 ml/application) and washed out with 5 ml of bath solution at the end of each application. Each test solution was freshly diluted and manually applied with a micropipette into the chamber. Because of this manual procedure, there could be several seconds of delay in actual application from electronic tick marks used to define the beginning of application in each graph. At the same time, the solution flow might not be completely laminar. In most cases, the onset of Ca2+ rise in response to a specific solution occurred within 15 seconds of the beginning of solution application, though longer delays were sometimes observed. Acetylcholine was applied at the end of each experiment at 10 μM for 15–20 seconds. Ratiometric Ca^2+ measurements were performed as described by Grynkiewicz (1985) 260:3440–3450, with modifications using the Zeiss/Attofluor-Ratiovision imaging system. At 5-second intervals, the cells were sequentially illuminated for less than 100 ms, first at 340 nm and then at 380 nm. Fluorescence emission at 510 nm was monitored for each excitation wavelength via an intensified CCD camera. Averaged pixel intensities within 40 to 100 regions of interest, corresponding to 40 to 100 individual cells, were digitized and stored on a computer. Attofluor-Ratiovision software (Atto Instruments) was used to determine the Ca^2+-dependent fluorescence signal expressed as the F340/F380 ratio.
To determine if these physiologic responses were caused by ligand interaction with a full-length 7-membrane receptor, a genomic clone of the entire I-C6 receptor coding sequence was isolated and used to make a chimeric molecule incorporating the tranlocation domain of the invention (the “rhodopsin tag” sequence). The full-length I-C6 receptor retained the same stereo-selectivity as a chimeric receptor construct whose only I-C6 sequence was the transmembrane domains II through VII (i.e., the odorant/ligand binding domain). […]

[2] = tested on: mouse olfactory receptor TM II–VII chimeric receptor library (pools of clones); experiment: Ca2+ imaging screen of 80 library chimeric receptors (10 pools of eight constructs) against 26 odorants in HEK-293 cells with Gα15,16; type: cell-based; conditions: for intracellular Ca2+ response of a clone pool: odorants applied sequentially
Experimental: HEK-293 cells (obtained from the ATCC) were grown in DMEM supplemented with 10% fetal bovine serum, penicillin (100 U/ml), streptomycin (100 μg/ml) and L-glutamine (2 mM) in 5% CO2. Before transfection, the cells were seeded onto poly-L-lysine-coated 10.5×35×0.17 mm glass coverslips (Bellco) placed in the 60 mm culture dishes. Calcium phosphate-mediated transfections were performed in a 60 mm dish with 3 to 4 μg of receptor construct DNA, 1 μg of pCIS Gα 15 and Gα16 expression vector (Offermanns (1995) supra). 2 μg of pBluescript carrier DNA, and 0.3 μg of pRSV-T antigen expression vector (Gorman (1990) DNA and Protein Eng. Tech. 2:3–9). After 5 to 7 hr incubation, the cells were washed once with PBS containing 0.5 mM EDTA and 10% DMSO, then with PBS before continuing growth in regular media for 40–50 hr.
as §1
The 7-transmembrane domain region TM II–VII expressing vector libraries of the invention were expressed in this cell expression system. Various odorant were screened for their ability to generate a physiologic response in the form of a calcium transient, as above. Eighty plasmid clones arrayed in microtiter plates were pooled into 10 groups of eight constructs each, and co-transfected with Gα15,16 into HEK-293 cells. […]

[3] = tested on: I-G7 chimeric olfactory receptor; experiment: Ca2+ imaging, individual clone I-G7 in HEK-293 cells with Gα15,16; type: cell-based, mouse; conditions: 10 μM
Experimental: These transfected cells were then tested for their ability to functionally respond to ligand-receptor binding. The ligand, the adrenergic agonist isoproterenol, was “bath” applied to the transfected cells and single cell Ca^2+-imaging was performed. Cells were pre-loaded with the Ca^2+-sensitive fluorescent dye FURA-2 AM (Molecular Probes) by bathing in serum-free DMEM containing 4 μM of the membrane permeant chemical for 1 hr at 37° C., then washed with a standard bath solution (130 mM NaCl, 2 mM CaCl2, 5 mM KCl, 10 mM glucose, 10 mM Na.HEPES/pH 7.4 at room temperature). For each experiment, a glass coverslip with FURA-2 loaded HEK 293 cells was introduced into an open-topped, longitudinal microperfusion chamber (300 μl bath volume mounted on a Zeiss Axiovert 135 microscope equipped with an F Fluar 40×/1.30 oil-immersion lens. The cells were superfused with test solutions typically for 30 to 40 seconds (5 ml/application) and washed out with 5 ml of bath solution at the end of each application. Each test solution was freshly diluted and manually applied with a micropipette into the chamber. Because of this manual procedure, there could be several seconds of delay in actual application from electronic tick marks used to define the beginning of application in each graph. At the same time, the solution flow might not be completely laminar. In most cases, the onset of Ca2+ rise in response to a specific solution occurred within 15 seconds of the beginning of solution application, though longer delays were sometimes observed. Acetylcholine was applied at the end of each experiment at 10 μM for 15–20 seconds. Ratiometric Ca^2+ measurements were performed as described by Grynkiewicz (1985) 260:3440–3450, with modifications using the Zeiss/Attofluor-Ratiovision imaging system. […] Fluorescence emission at 510 nm was monitored for each excitation wavelength via an intensified CCD camera. […] Attofluor-Ratiovision software (Atto Instruments) was used to determine the Ca^2+-dependent fluorescence signal expressed as the F340/F380 ratio. […]

[4] = tested on: I-D3 chimeric olfactory receptor; experiment: Ca2+ imaging, individual clone I-D3 in HEK-293 cells with Gα15,16; type: cell-based, mouse
Experimental: (§2) These transfected cells were then tested for their ability to functionally respond to ligand-receptor binding. The ligand, the adrenergic agonist isoproterenol, was “bath” applied to the transfected cells and single cell Ca^2+-imaging was performed. Cells were pre-loaded with the Ca^2+-sensitive fluorescent dye FURA-2 AM (Molecular Probes) by bathing in serum-free DMEM containing 4 μM of the membrane permeant chemical for 1 hr at 37° C., then washed with a standard bath solution (130 mM NaCl, 2 mM CaCl2, 5 mM KCl, 10 mM glucose, 10 mM Na.HEPES/pH 7.4 at room temperature). […] Fluorescence emission at 510 nm was monitored for each excitation wavelength via an intensified CCD camera. […] Attofluor-Ratiovision software (Atto Instruments) was used to determine the Ca^2+-dependent fluorescence signal expressed as the F340/F380 ratio. […]

[5] = tested on: I-C6 chimeric olfactory receptor (TM II–VII); experiment: Ca2+ imaging, individual clone I-C6 (TM II–VII chimeric) in HEK-293 cells with Gα15,16; type: cell-based, mouse; conditions: (−) vs (+) isomer
Experimental: as §2

[6] = control experiments lacking Gα15,16

Structure (SMILES)	qualitative rank order of potency for binding and activating the I-C6 receptor [1]	intracellular Ca2+ response ([1]; 30 μM)	intracellular Ca2+ response of a clone pool ([2]; 10 μM)	further results
CC(C)=CCCC(C)CC=O (single isomer, unassigned; (+)) [(+) citronellal]	(−)citronellal>(+)citronellal, citronellyl bromide>28 other odorants	elicit a response	absence of response	intracellular Ca2+ response ([1]; 100 μM): elicit a response
C=C(C)C1CC=C(C)CC1 (single isomer, unassigned; (+)) [(+) limonene]			transient increases in Ca^2+	intracellular Ca2+ response [3]: responded
C=C(C)C1CC=C(C)C(=O)C1 (single isomer, unassigned; (-)) [(−) carvone]			transient increases in Ca^2+	Ca2+ response of a clone pool to a second application ([2]; 10 μM, second application): second response to (−) carvone could still be elicited; intracellular Ca2+ response [4]: responsive
CC(C)=CCCC(C)CC=O (single isomer, unassigned; (-)) [(−) citronellal]	(−)citronellal>(+)citronellal, citronellyl bromide>28 other odorants		transient increases in Ca^2+	intracellular Ca2+ response ([1]; 1 μM): responding; stereo-selectivity of the Ca2+ response ([1]; (−) vs (+) isomer): preferred; intracellular Ca2+ response after a prior positive response ([1]; applied immediately after 30 μM (+) citronellal (desensitization)): lack of response; intracellular Ca2+ response [1, 6]: no response; stereo-selectivity of the Ca2+ response [5]: selective; also recorded: preferred; response of a library receptor ([2]; micromolar concentrations, three receptors, respectively): responded
CC(C)=CCCC(C)CC(=O)O (single isomer, unassigned; (-)) [(−) citronellic acid]		only 30 μM (−) citronellyl bromide elicited a small response		
CC(C)=CCCC(C)CCO (single isomer, unassigned; (-)) [(−) citronellol]		only 30 μM (−) citronellyl bromide elicited a small response		
CC(C)=CCCC(C)CCBr (single isomer, unassigned; (-)) [(−) citronellyl bromide]	(−)citronellal>(+)citronellal, citronellyl bromide>28 other odorants	small response		intracellular Ca2+ response [1, 6]: no response
